According to ChEMBL document CHEMBL1201861, “Genomics of Drug Sensitity in Cancer screening data, Wellcome Trust Sanger Institute”:
pIC50: −log10 of the molar value.

Assays:
Test in all cases: cells
NCI-H1651 = assay type: functional, cell-based, Homo sapiens; details: Homo sapiens, NCI-H1651
Description: SANGER: Inhibition of human NCI-H1651 cell growth in a cell viability assay.

KY821 = assay type: functional, cell-based; details: Homo sapiens
SNU-387 = assay type: functional, cell-based, Homo sapiens; details: Homo sapiens, SNU-387
Description: SANGER: Inhibition of human SNU-387 cell growth in a cell viability assay.

COLO-824 = assay type: functional, cell-based, Homo sapiens; details: Homo sapiens, COLO-824
Description: SANGER: Inhibition of human COLO-824 cell growth in a cell viability assay.

PSN1 = assay type: functional, cell-based, Homo sapiens; details: Homo sapiens, PSN1
Description: SANGER: Inhibition of human PSN1 cell growth in a cell viability assay.

EFO-27 = assay type: functional, cell-based, Homo sapiens; details: Homo sapiens, EFO-27
Description: SANGER: Inhibition of human EFO-27 cell growth in a cell viability assay.

LS-513 = assay type: functional, cell-based, Homo sapiens; details: Homo sapiens, LS-513
Description: SANGER: Inhibition of human LS-513 cell growth in a cell viability assay.

EW-11 = assay type: functional, cell-based, Homo sapiens; details: Homo sapiens, EW-11
Description: SANGER: Inhibition of human EW-11 cell growth in a cell viability assay.

HCC1187 = assay type: functional, cell-based, Homo sapiens; details: Homo sapiens, HCC1187
Description: SANGER: Inhibition of human HCC1187 cell growth in a cell viability assay.

CAL-72 = assay type: functional, cell-based, Homo sapiens; details: Homo sapiens, CAL-72
Description: SANGER: Inhibition of human CAL-72 cell growth in a cell viability assay.

UMUC3 = assay type: functional, cell-based, Homo sapiens; details: Homo sapiens, UMUC3
Description: SANGER: Inhibition of human UM-UC-3 cell growth in a cell viability assay.

NOMO-1 = assay type: functional, cell-based; details: Homo sapiens
RPMI-2650 = assay type: functional, cell-based, Homo sapiens; details: Homo sapiens, RPMI-2650
Description: SANGER: Inhibition of human RPMI-2650 cell growth in a cell viability assay.

NY = assay type: functional, cell-based, Homo sapiens; details: Homo sapiens, NY
Description: SANGER: Inhibition of human NY cell growth in a cell viability assay.

OVCAR-8 = assay type: functional, cell-based, Homo sapiens; details: Homo sapiens, OVCAR-8
Description: SANGER: Inhibition of human OVCAR-8 cell growth in a cell viability assay.

ATN-1 = assay type: functional, cell-based; details: Homo sapiens
Description: SANGER: Inhibition of human ATN-1 cell growth in a cell viability assay.

BB30-HNC = assay type: functional, cell-based, Homo sapiens; details: Homo sapiens, BB30-HNC
Description: SANGER: Inhibition of human BB30-HNC cell growth in a cell viability assay.

FaDu = assay type: functional, cell-based, Homo sapiens; details: Homo sapiens, FaDu
Description: SANGER: Inhibition of human FADU cell growth in a cell viability assay.

SAOS-2 = assay type: functional, cell-based, Homo sapiens; details: Homo sapiens, SAOS-2
Description: SANGER: Inhibition of human Saos-2 cell growth in a cell viability assay.

NCI-H1648 = assay type: functional, cell-based, Homo sapiens; details: Homo sapiens, NCI-H1648
Description: SANGER: Inhibition of human NCI-H1648 cell growth in a cell viability assay.

UACC-62 = assay type: functional, cell-based, Homo sapiens; details: Homo sapiens, UACC-62
Description: SANGER: Inhibition of human UACC-62 cell growth in a cell viability assay.

HDLM-2 = assay type: functional, cell-based; details: Homo sapiens
Description: SANGER: Inhibition of human HDLM-2 cell growth in a cell viability assay.

LS-411N = assay type: functional, cell-based, Homo sapiens; details: Homo sapiens, LS-411N
K562 = assay type: functional, cell-based; details: Homo sapiens
Description: SANGER: Inhibition of human K-562 cell growth in a cell viability assay.

NCI-H810 = assay type: functional, cell-based, Homo sapiens; details: Homo sapiens, NCI-H810
Description: SANGER: Inhibition of human NCI-H810 cell growth in a cell viability assay.

TE-9 = assay type: functional, cell-based, Homo sapiens; details: Homo sapiens, TE-9
Description: SANGER: Inhibition of human TE-9 cell growth in a cell viability assay.

NCI-H2342 = assay type: functional, cell-based; details: Homo sapiens
Description: SANGER: Inhibition of human NCI-H2342 cell growth in a cell viability assay.

HH = assay type: functional, cell-based; details: Homo sapiens
Description: SANGER: Inhibition of human HH cell growth in a cell viability assay.

MEL-HO = assay type: functional, cell-based, Homo sapiens; details: Homo sapiens, MEL-HO
Description: SANGER: Inhibition of human MEL-HO cell growth in a cell viability assay.

VMRC-RCZ = assay type: functional, cell-based; details: Homo sapiens
Description: SANGER: Inhibition of human VMRC-RCZ cell growth in a cell viability assay.

TK-10 = assay type: functional, cell-based, Homo sapiens; details: Homo sapiens, TK-10
Description: SANGER: Inhibition of human TK10 cell growth in a cell viability assay.

KYSE-450 = assay type: functional, cell-based; details: Homo sapiens
Description: SANGER: Inhibition of human KYSE-450 cell growth in a cell viability assay.

MZ7-mel = assay type: functional, cell-based, Homo sapiens; details: Homo sapiens, MZ7-mel
Description: SANGER: Inhibition of human MZ7-mel cell growth in a cell viability assay.

LNCaP-Clone-FGC = assay type: functional, cell-based, Homo sapiens; details: Homo sapiens, LNCaP-Clone-FGC
Description: SANGER: Inhibition of human LNCaP-Clone-FGC cell growth in a cell viability assay.

HuO-3N1 = assay type: functional, cell-based, Homo sapiens; details: Homo sapiens, HuO-3N1
Description: SANGER: Inhibition of human HuO-3N1 cell growth in a cell viability assay.

DU-145 = assay type: functional, cell-based, Homo sapiens; details: Homo sapiens, DU-145
Description: SANGER: Inhibition of human DU-145 cell growth in a cell viability assay.

JVM-3 = assay type: functional, cell-based; details: Homo sapiens
Description: SANGER: Inhibition of human JVM-3 cell growth in a cell viability assay.

COLO-800 = assay type: functional, cell-based, Homo sapiens; details: Homo sapiens, COLO-800
Description: SANGER: Inhibition of human COLO-800 cell growth in a cell viability assay.

ES5 = assay type: functional, cell-based, Homo sapiens; details: Homo sapiens, ES5
ASPC1 = assay type: functional, cell-based, Homo sapiens; details: Homo sapiens, ASPC1
Description: SANGER: Inhibition of human AsPC-1 cell growth in a cell viability assay.

OCI-AML2 = assay type: functional, cell-based; details: Homo sapiens
Description: SANGER: Inhibition of human OCI-AML2 cell growth in a cell viability assay.

L-428 = assay type: functional, cell-based; details: Homo sapiens
Description: SANGER: Inhibition of human L-428 cell growth in a cell viability assay.

DJM-1 = assay type: functional, cell-based, Homo sapiens; details: Homo sapiens, DJM-1
Description: SANGER: Inhibition of human DJM-1 cell growth in a cell viability assay.

A 172 = assay type: functional, cell-based, Homo sapiens; details: Homo sapiens, A 172
NCI-H1993 = assay type: functional, cell-based, Homo sapiens; details: Homo sapiens, NCI-H1993
Description: SANGER: Inhibition of human NCI-H1993 cell growth in a cell viability assay.

UACC-257 = assay type: functional, cell-based, Homo sapiens; details: Homo sapiens, UACC-257
Description: SANGER: Inhibition of human UACC-257 cell growth in a cell viability assay.

RVH-421 = assay type: functional, cell-based, Homo sapiens; details: Homo sapiens, RVH-421
Description: SANGER: Inhibition of human RVH-421 cell growth in a cell viability assay.

TE-5 = assay type: functional, cell-based, Homo sapiens; details: Homo sapiens, TE-5
Description: SANGER: Inhibition of human TE-5 cell growth in a cell viability assay.

NCI-H1770 = assay type: functional, cell-based; details: Homo sapiens
Description: SANGER: Inhibition of human NCI-H1770 cell growth in a cell viability assay.

MHH-PREB-1 = assay type: functional, cell-based; details: Homo sapiens
Description: SANGER: Inhibition of human MHH-PREB-1 cell growth in a cell viability assay.

DB = assay type: functional, cell-based; details: Homo sapiens
Description: SANGER: Inhibition of human DB cell growth in a cell viability assay.

## C[C@]1(O)C[C@@H](c2nc(-c3ccc4ccc(-c5ccccc5)nc4c3)c3c(N)nccn32)C1 [LINSITINIB]
NCI-H1651
  pIC50: < 5.59
KY821
  pIC50: < 5.59
SNU-387
  pIC50: 6.00
COLO-824
  pIC50: < 5.59
PSN1
  pIC50: < 5.59
EFO-27
  pIC50: < 5.59
LS-513
  pIC50: 5.69
EW-11
  pIC50: 6.55
HCC1187
  pIC50: < 5.59
CAL-72
  pIC50: < 5.59
UMUC3
  pIC50: < 5.59
NOMO-1
  pIC50: < 5.59
RPMI-2650
  pIC50: < 5.59
NY
  pIC50: < 5.59
OVCAR-8
  pIC50: < 5.59
ATN-1
  pIC50: < 5.59
BB30-HNC
  pIC50: < 5.59
FaDu
  pIC50: < 5.59
SAOS-2
  pIC50: 6.78
NCI-H1648
  pIC50: < 5.59
UACC-62
  pIC50: < 5.59
HDLM-2
  pIC50: < 5.59
LS-411N
  pIC50: < 5.59
K562
  pIC50: < 5.59
NCI-H810
  pIC50: < 5.59
TE-9
  pIC50: < 5.59
NCI-H2342
  pIC50: < 5.59
HH
  pIC50: < 5.59
MEL-HO
  pIC50: < 5.59
VMRC-RCZ
  pIC50: < 5.59
TK-10
  pIC50: < 5.59
KYSE-450
  pIC50: < 5.59
MZ7-mel
  pIC50: < 5.59
LNCaP-Clone-FGC
  pIC50: < 5.59
HuO-3N1
  pIC50: < 5.59
DU-145
  pIC50: < 5.59
JVM-3
  pIC50: < 5.59
COLO-800
  pIC50: < 5.59
ES5
  pIC50: < 5.59
ASPC1
  pIC50: < 5.59
OCI-AML2
  pIC50: < 5.59
L-428
  pIC50: < 5.59
DJM-1
  pIC50: < 5.59
A 172
  pIC50: < 5.59
NCI-H1993
  pIC50: < 5.59
UACC-257
  pIC50: < 5.59
RVH-421
  pIC50: < 5.59
TE-5
  pIC50: < 5.59
NCI-H1770
  pIC50: 5.82
MHH-PREB-1
  pIC50: < 5.59
DB
  pIC50: < 5.59

## C=CCc1cccc(/C=N/NC(=O)CN2CCN(Cc3ccccc3)CC2)c1O [PAC-1]
NCI-H1651
  pIC50: < 5.59
KY821
  pIC50: < 5.59
SNU-387
  pIC50: < 5.59
COLO-824
  pIC50: < 5.59
PSN1
  pIC50: < 5.59
EFO-27
  pIC50: < 5.59
LS-513
  pIC50: < 5.59
EW-11
  pIC50: < 5.59
HCC1187
  pIC50: < 5.59
CAL-72
  pIC50: < 5.59
UMUC3
  pIC50: < 5.59
NOMO-1
  pIC50: < 5.59
RPMI-2650
  pIC50: < 5.59
NY
  pIC50: < 5.59
OVCAR-8
  pIC50: < 5.59
ATN-1
  pIC50: < 5.59
BB30-HNC
  pIC50: < 5.59
FaDu
  pIC50: < 5.59
SAOS-2
  pIC50: < 5.59
NCI-H1648
  pIC50: < 5.59
UACC-62
  pIC50: < 5.59
HDLM-2
  pIC50: 5.74
LS-411N
  pIC50: 5.68
K562
  pIC50: < 5.59
NCI-H810
  pIC50: < 5.59
TE-9
  pIC50: < 5.59
NCI-H2342
  pIC50: < 5.59
HH
  pIC50: < 5.59
MEL-HO
  pIC50: 5.75
VMRC-RCZ
  pIC50: < 5.59
TK-10
  pIC50: < 5.59
KYSE-450
  pIC50: < 5.59
MZ7-mel
  pIC50: 5.59
LNCaP-Clone-FGC
  pIC50: < 5.59
HuO-3N1
  pIC50: < 5.59
DU-145
  pIC50: < 5.59
JVM-3
  pIC50: < 5.59
COLO-800
  pIC50: < 5.59
ES5
  pIC50: < 5.59
ASPC1
  pIC50: < 5.59
OCI-AML2
  pIC50: < 5.59
L-428
  pIC50: 5.88
DJM-1
  pIC50: < 5.59
A 172
  pIC50: < 5.59
NCI-H1993
  pIC50: < 5.59
UACC-257
  pIC50: < 5.59
RVH-421
  pIC50: < 5.59
TE-5
  pIC50: < 5.59
NCI-H1770
  pIC50: < 5.59
MHH-PREB-1
  pIC50: < 5.59
DB
  pIC50: < 5.59

## Cc1ccc(Nc2nccc(N(C)c3ccc4c(C)n(C)nc4c3)n2)cc1S(N)(=O)=O [PAZOPANIB]
NCI-H1651
  pIC50: < 5.10
KY821
  pIC50: < 5.10
SNU-387
  pIC50: < 5.10
COLO-824
  pIC50: < 5.10
PSN1
  pIC50: < 5.10
EFO-27
  pIC50: < 5.10
LS-513
  pIC50: < 5.10
EW-11
  pIC50: < 5.10
HCC1187
  pIC50: < 5.10
CAL-72
  pIC50: 5.23
UMUC3
  pIC50: < 5.10
NOMO-1
  pIC50: < 5.10
RPMI-2650
  pIC50: < 5.10
NY
  pIC50: 5.73
OVCAR-8
  pIC50: < 5.10
ATN-1
  pIC50: < 5.10
BB30-HNC
  pIC50: < 5.10
FaDu
  pIC50: < 5.10
SAOS-2
  pIC50: < 5.10
NCI-H1648
  pIC50: < 5.10
UACC-62
  pIC50: < 5.10
HDLM-2
  pIC50: < 5.10
LS-411N
  pIC50: < 5.10
K562
  pIC50: < 5.10
NCI-H810
  pIC50: 5.20
TE-9
  pIC50: < 5.10
NCI-H2342
  pIC50: 5.50
HH
  pIC50: < 5.10
MEL-HO
  pIC50: < 5.10
VMRC-RCZ
  pIC50: < 5.10
TK-10
  pIC50: < 5.10
KYSE-450
  pIC50: < 5.10
MZ7-mel
  pIC50: < 5.10
LNCaP-Clone-FGC
  pIC50: < 5.10
HuO-3N1
  pIC50: < 5.10
DU-145
  pIC50: < 5.10
JVM-3
  pIC50: < 5.10
COLO-800
  pIC50: < 5.10
ES5
  pIC50: < 5.10
ASPC1
  pIC50: < 5.10
OCI-AML2
  pIC50: < 5.10
L-428
  pIC50: < 5.10
DJM-1
  pIC50: < 5.10
A 172
  pIC50: 5.43
NCI-H1993
  pIC50: < 5.10
UACC-257
  pIC50: < 5.10
RVH-421
  pIC50: < 5.10
TE-5
  pIC50: < 5.10
NCI-H1770
  pIC50: < 5.10
MHH-PREB-1
  pIC50: < 5.10
DB
  pIC50: < 5.10
